The values that follow come from ChEMBL document CHEMBL1201862, “PubChem BioAssay data set” (2004).

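How tested: cells in 96-well plates exposed to compound for 48 hours at five concentrations. At the GI50, growth is halved.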 Calls of active or inactive are those of the source. No stated cut-off is given here; in the data, active = GI50 up to about 1.1 µM and inactive = higher.

Some test systems named below: KM12; SK-MEL-28; HCT-116; SW-620; ACHN; SN12C; MCF7; K562; T47D; SR; NCI/ADR-RES; RXF 393; MDA-MB-231; SNB-75; U-251; DU-145; A549; HOP-92; SF-268; EKVX.
Experiment in all cases: NCI tumour cell line growth inhibition, 48 h

In the case of `COC1OC(COC(=O)NCCCCC(=O)C(F)(F)F)C(O)C(O)C1O` (stereo not given), the GI50 in the test on KM12, in the test with SK-MEL-28, in the test on HCT-116, in the test with SW-620, in the test on ACHN and in the test with SN12C was > 100 µM (inactive) each time. Further, the GI50 with MCF7, with K562, in the test with T47D, in the test with SR, in the test with NCI/ADR-RES and in the test with RXF 393 was > 100 µM (inactive) in each case. Besides, the GI50 in the test on MDA-MB-231, with SNB-75, with U-251, in the test on DU-145, in the test on A549 and in the test on HOP-92 was > 100 µM (inactive) in each case. In the test on SF-268, the GI50 was > 100 µM (inactive).
With `CC(=O)OC1CCC2(C)C(CCC3C2CC(=O)C2(C)C3CC(N3CC3)C2C(C)=O)C1` (stereo not given), the GI50 with KM12 is 17.1 µM (inactive); with SK-MEL-28, 30.7 µM (inactive); in the test on HCT-116 it was 20.7 µM (inactive); in the test on SW-620, 21.1 µM (inactive); in the test with ACHN, 13.8 µM (inactive); in the test with SN12C it was 21.9 µM (inactive). The GI50 is 15.4 µM (inactive) in the test on MCF7; 18.4 µM (inactive) with EKVX; 15.2 µM (inactive) in the test with K562; 18.7 µM (inactive) with T47D; 1.78 µM (inactive) in the test on SR; 24.6 µM (inactive) in the test on NCI/ADR-RES. Besides, the GI50 in the test with RXF 393 was 16.5 µM (inactive); with MDA-MB-231 it was 16.7 µM (inactive); in the test with SNB-75, 17.2 µM (inactive); with U-251 it was 17.2 µM (inactive); with DU-145, 32.6 µM (inactive); in the test with A549, 27.4 µM (inactive). In addition, the values for the GI50 with HOP-92 and with SF-268 were 18.4 µM (inactive) and 11.6 µM (inactive), respectively.
With `Cc1cn(C2OC(CO[Si](C)(C)C(C)(C)C)/C(=C\C#N)C2O[Si](C)(C)C(C)(C)C)c(=O)[nH]c1=O` (stereo not given), the GI50 with KM12 is 27.1 µM (inactive); in the test with SK-MEL-28, > 100 µM (inactive); with HCT-116, 22.9 µM (inactive); in the test on SW-620, > 100 µM (inactive); in the test on ACHN, 83 µM (inactive); in the test with SN12C, 64.6 µM (inactive). Moreover, the GI50 in the test on MCF7 was 1.89 µM (inactive); in the test with K562, 1.93 µM (inactive); in the test on T47D, 5.3 µM (inactive); with SR, > 100 µM (inactive); in the test on NCI/ADR-RES it was > 100 µM (inactive); in the test on RXF 393, 7.53 µM (inactive). Also, the GI50 with MDA-MB-231 was > 100 µM (inactive); in the test with SNB-75, 56.9 µM (inactive); in the test on U-251, 38.4 µM (inactive); in the test on DU-145 it was 81.8 µM (inactive); in the test on A549, 41.6 µM (inactive); with HOP-92, > 100 µM (inactive). In addition, in the test with SF-268, the GI50 was 92.5 µM (inactive).
`CC(C)N(C(=O)c1ccc(NCc2cc(O)ccc2O)cc1)C(C)C`: the GI50 in the test on SK-MEL-28 was 16.9 µM (inactive); in the test with HCT-116, 15.5 µM (inactive); in the test on SW-620, 21.5 µM (inactive); with ACHN it was 13.8 µM (inactive); in the test with SN12C, 18.2 µM (inactive); with MCF7, 23.9 µM (inactive). For the same compound, the GI50 in the test on EKVX is 14.7 µM (inactive); with K562, 20.4 µM (inactive); in the test with T47D, 11.8 µM (inactive); in the test on SR, > 100 µM (inactive); with NCI/ADR-RES, 14.8 µM (inactive); with RXF 393 it was 13.1 µM (inactive). Moreover, the GI50 is 14.3 µM (inactive) with MDA-MB-231; 24.8 µM (inactive) with SNB-75; 15.8 µM (inactive) with U-251; 16.4 µM (inactive) in the test with DU-145; 26.2 µM (inactive) in the test on A549; 11.9 µM (inactive) with HOP-92. The GI50 in the test on SF-268 is 17.6 µM (inactive).
For the compound `O=S(=O)(O)c1cccc2cccc(/N=N/c3c(O)ccc4ccccc34)c12`, the GI50 in the test with KM12, in the test with HCT-116, in the test with SW-620, in the test on ACHN, in the test on SN12C and with MCF7 was > 100 µM (inactive) in each case. Also, the GI50 with EKVX was 92.3 µM (inactive); in the test on K562 it was > 100 µM (inactive); in the test with T47D, > 100 µM (inactive); in the test on SR, > 100 µM (inactive); in the test on NCI/ADR-RES, > 100 µM (inactive); with RXF 393, > 100 µM (inactive). The GI50 in the test on MDA-MB-231, with SNB-75, in the test with U-251, in the test on DU-145, in the test on A549 and in the test on HOP-92 was > 100 µM (inactive) each time. Moreover, in the test on SF-268, the GI50 was > 100 µM (inactive).
As to `O=C1C=C(NCC(c2ccccc2)c2ccccc2)C(=O)c2ncccc21`, the GI50 with KM12 was 2.19 µM (inactive); with SK-MEL-28, 2.85 µM (inactive); in the test on HCT-116, 8.53 µM (inactive); in the test with SW-620, 1.83 µM (inactive); in the test on ACHN it was 2.28 µM (inactive); with SN12C, 2.1 µM (inactive). The GI50 was 1.4 µM (inactive) in the test with MCF7; 2.07 µM (inactive) with EKVX; 1.38 µM (inactive) in the test with K562; 3.08 µM (inactive) with T47D; 1.63 µM (inactive) in the test on SR; 2.49 µM (inactive) in the test with NCI/ADR-RES. For the same compound, the GI50 with MDA-MB-231 is 2.67 µM (inactive); in the test on SNB-75, 0.507 µM (active); in the test on U-251, 2.05 µM (inactive); in the test on DU-145, 1.96 µM (inactive); in the test with A549, 0.668 µM (active); in the test on HOP-92 it was 2.26 µM (inactive). The GI50 in the test with SF-268 was 2.53 µM (inactive).
With `O=C(O)c1cc(-c2ccc3c(O)ccc(O)c3c2)ccc1O`, the GI50 was 20.3 µM (inactive) in the test on KM12; 18.1 µM (inactive) in the test on SK-MEL-28; 16.8 µM (inactive) with HCT-116; 5.82 µM (inactive) in the test on SW-620; 19.3 µM (inactive) in the test on ACHN; 15.7 µM (inactive) in the test with SN12C. Also, the GI50 in the test on MCF7 was 22.6 µM (inactive); in the test on EKVX, 18.2 µM (inactive); with K562, 5.14 µM (inactive); with T47D it was 6.4 µM (inactive); with SR, 3.51 µM (inactive); in the test on NCI/ADR-RES, 28.1 µM (inactive). For the same compound, the GI50 is 12.9 µM (inactive) in the test on RXF 393; 23.2 µM (inactive) in the test with MDA-MB-231; 17 µM (inactive) in the test on SNB-75; 21.4 µM (inactive) in the test on U-251; 24 µM (inactive) with DU-145; 33.5 µM (inactive) in the test on A549. Further, the GI50 in the test with SF-268 was 29.1 µM (inactive).
In the case of `O=C1CN(/N=C/c2ccc(-c3ccc(F)cc3)o2)C(=O)N1`, the GI50 was 33.1 µM (inactive) in the test with KM12; 25.4 µM (inactive) in the test on SK-MEL-28; 50.8 µM (inactive) with HCT-116; 43 µM (inactive) in the test on SW-620; > 100 µM (inactive) in the test with ACHN; 91.2 µM (inactive) in the test with SN12C. The GI50 in the test with MCF7 is 49.1 µM (inactive); in the test with EKVX it was > 100 µM (inactive); with K562, 35 µM (inactive); in the test with T47D, > 100 µM (inactive); in the test on SR, 24 µM (inactive); with NCI/ADR-RES, 25.9 µM (inactive). In addition, the GI50 in the test on RXF 393 is > 100 µM (inactive); with MDA-MB-231, > 100 µM (inactive); with U-251, 89.3 µM (inactive); in the test with DU-145 it was > 100 µM (inactive); with A549, 52.2 µM (inactive); in the test with HOP-92 it was 0.394 µM (active). Further, in the test on SF-268, the GI50 is > 100 µM (inactive).
Regarding `CC(=O)N1c2ccccc2C2=NN(C)C(=N)SC21` (stereo not given), the GI50 with KM12, in the test on SK-MEL-28, with HCT-116, in the test on SW-620, in the test with ACHN and with SN12C was > 100 µM (inactive) in each case. Further, the GI50 in the test on MCF7 is > 100 µM (inactive); with EKVX, > 100 µM (inactive); with K562 it was > 100 µM (inactive); with T47D, 29.9 µM (inactive); in the test with SR it was > 100 µM (inactive); in the test on NCI/ADR-RES it was > 100 µM (inactive). Further, the GI50 in the test on MDA-MB-231 was > 100 µM (inactive); in the test on SNB-75, 56 µM (inactive); with U-251 it was > 100 µM (inactive); in the test with DU-145 it was > 100 µM (inactive); in the test with A549, > 100 µM (inactive); with SF-268 it was > 100 µM (inactive).
As for `CN(C)CCNc1nc2ccccc2c2c1CCCC2`, the GI50 is 19.3 µM (inactive) in the test with KM12; 17.7 µM (inactive) in the test with SK-MEL-28; 14.8 µM (inactive) with HCT-116; 26.2 µM (inactive) with SW-620; 23.9 µM (inactive) in the test with ACHN; 22.9 µM (inactive) in the test on SN12C. For the same compound, the GI50 is 14.8 µM (inactive) in the test on MCF7; 37.9 µM (inactive) in the test with EKVX; 20.3 µM (inactive) in the test on K562; 16.7 µM (inactive) in the test with T47D; 25.1 µM (inactive) in the test on NCI/ADR-RES; 8.65 µM (inactive) with RXF 393. Also, the GI50 is 14.7 µM (inactive) with MDA-MB-231; 15.7 µM (inactive) in the test on SNB-75; 17.3 µM (inactive) in the test on U-251; 33.9 µM (inactive) in the test on DU-145; 32.6 µM (inactive) in the test with A549; 12.3 µM (inactive) in the test on HOP-92. Also, the GI50 with SF-268 is 32.1 µM (inactive).
